Experimental data: ChEMBL document CHEMBL1201862, “PubChem BioAssay data set” (2004)
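Following 48 hours of exposure in 96-well plates, responses at five concentrations were used to interpolate endpoints linearly. The concentration for 50% growth inhibition is given as GI50.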 Calls of active or inactive are those of the source. No stated cut-off is given here; in the data, active = GI50 up to about 1.1 µM and inactive = higher.

How the values were obtained:
Test in all cases: inhibition of tumour cell growth, NCI panel, 48 h
LOX IMVI = test system: LOX IMVI
EKVX = test system: EKVX
UACC-257 = test system: UACC-257
SF-539 = test system: SF-539
COLO 205 = test system: COLO 205
OVCAR-3 = test system: OVCAR-3
SNB-75 = test system: SNB-75
A549 = test system: A549
U-251 = test system: U-251
SK-MEL-5 = test system: SK-MEL-5
IGROV-1 = test system: IGROV-1
NCI-H226 = test system: NCI-H226
SK-OV-3 = test system: SK-OV-3
SW-620 = test system: SW-620
RXF 393 = test system: RXF 393
HCT-116 = test system: HCT-116
M14 = test system: M14
SK-MEL-2 = test system: SK-MEL-2
SK-MEL-28 = test system: SK-MEL-28
NCI-H522 = test system: NCI-H522

Measured: GI50

CO/N=C1/c2sccc2[C@H](NC(=O)CNC(=O)OC(C)(C)C)[C@@H]1O
inactive: LOX IMVI > 100 µM | EKVX > 100 µM | UACC-257 > 100 µM | SF-539 > 100 µM | COLO 205 > 100 µM | OVCAR-3 > 100 µM | SNB-75 > 100 µM | A549 > 100 µM | U-251 > 100 µM | SK-MEL-5 > 100 µM | IGROV-1 > 100 µM | NCI-H226 > 100 µM | SK-OV-3 > 100 µM | SW-620 > 100 µM | RXF 393 > 100 µM | HCT-116 > 100 µM | M14 > 100 µM | SK-MEL-2 > 100 µM | SK-MEL-28 > 100 µM

CC(C)CCCC(C)[C@H]1CC[C@H]2[C@@H]3CC[C@H]4C[C@@H](CCC=C(c5cc(Cl)c(O)c(C(=O)OC(C)(C)C)c5)c5cc(Cl)c(O)c(C(=O)OC(C)(C)C)c5)CC[C@]4(C)[C@H]3CC[C@]12C (some centres undefined)
inactive: LOX IMVI > 50 µM | EKVX > 50 µM | SF-539 15.7 µM | COLO 205 > 50 µM | OVCAR-3 > 50 µM | SNB-75 > 50 µM | A549 > 50 µM | U-251 > 50 µM | SK-MEL-5 > 50 µM | IGROV-1 > 50 µM | SK-OV-3 > 50 µM | SW-620 > 50 µM | RXF 393 > 50 µM | HCT-116 > 50 µM | M14 > 50 µM | SK-MEL-2 > 50 µM | SK-MEL-28 > 50 µM

CN(C)c1ccc(/C=N/c2ccc(Oc3ccc(Cl)cc3)c(Cl)c2)cc1
inactive: LOX IMVI 17.9 µM | EKVX 17.5 µM | UACC-257 19.8 µM | SF-539 16.9 µM | COLO 205 22.1 µM | OVCAR-3 12.9 µM | SNB-75 13.1 µM | A549 18.7 µM | U-251 16.9 µM | SK-MEL-5 15 µM | NCI-H522 13.8 µM | IGROV-1 21.7 µM | NCI-H226 21.6 µM | SK-OV-3 26.8 µM | SW-620 30.3 µM | HCT-116 5.2 µM | M14 28.1 µM | SK-MEL-2 14.5 µM | SK-MEL-28 19.3 µM

COc1ccc(CC/N=C2\CCC(C(=O)NCCc3ccc(OC)c(OC)c3)N2)cc1OC (centres undefined)
inactive: LOX IMVI > 100 µM | EKVX > 100 µM | UACC-257 > 100 µM | COLO 205 > 100 µM | OVCAR-3 > 100 µM | SNB-75 > 100 µM | A549 > 100 µM | U-251 > 100 µM | SK-MEL-5 > 100 µM | NCI-H522 > 100 µM | IGROV-1 > 100 µM | NCI-H226 > 100 µM | SK-OV-3 > 100 µM | SW-620 > 100 µM | HCT-116 > 100 µM | M14 > 100 µM | SK-MEL-2 > 100 µM | SK-MEL-28 > 100 µM

CCn1cc(C(c2ccc(Cl)cc2)n2ccnc2)c2cc(Br)ccc21 (centres undefined)
inactive: LOX IMVI 12.9 µM | EKVX > 100 µM | UACC-257 14.1 µM | SF-539 18.7 µM | COLO 205 11.6 µM | OVCAR-3 10.3 µM | SNB-75 13.6 µM | A549 10.4 µM | U-251 14.7 µM | SK-MEL-5 15.7 µM | IGROV-1 9.31 µM | NCI-H226 22.1 µM | SK-OV-3 17.7 µM | RXF 393 14.8 µM | HCT-116 16.1 µM | M14 13.3 µM | SK-MEL-2 17 µM

NC(=S)N/N=C1\C(=O)Nc2c(Cl)cc(Cl)cc21
inactive: LOX IMVI 18.3 µM | EKVX 20.3 µM | UACC-257 24.2 µM | SF-539 18.1 µM | COLO 205 20.2 µM | OVCAR-3 11.7 µM | SNB-75 19 µM | A549 31.3 µM | U-251 19.5 µM | SK-MEL-5 14.4 µM | IGROV-1 22.5 µM | NCI-H226 15.7 µM | SK-OV-3 41.9 µM | SW-620 30.5 µM | RXF 393 16 µM | HCT-116 17.9 µM | M14 17.2 µM | SK-MEL-2 15.5 µM | SK-MEL-28 15 µM
